Data set [1] has as its system incontinence due to detrusor over activity with DHIC. To be noted: cited from earlier work.
The test system of data set [2] is MIF protein release from rat bladder muscle culture cells. As to the kind of experiment: MIF ELISA of supernatants from rat bladder muscle cultures. The format is cell-based. The settings on record: TNF-α 50 ng/ml for 24 hours, 3 separate cultures. The protocol:
(§1) Tissue culture. Primary bladder muscle cultures were derived from newborn Sprague-Daley rats (Charles River; Wilmington, Mass.). The bladders were harvested, minced and added to 3 ml dissociation solution containing 0.5 mg/ml collagenase, 0.5 mg/ml elastase, 2 μg/ml DNAse (Worthington, Lakewood, N.J.) and 1 mg/ml soybean trypsin inhibitor (Gibco, Carlsbad, Calif.). The tissue was triturated at 15 minute intervals for 45 minutes using fire polished pasteur pipets. The cell solution was filtered through a 40 μm cell strainer and spun at 1000 rpm for 5 minutes. The supernatant was aspirated and cells resuspended in DMEM-F/12 medium containing 1% FBS, 1% N-2 supplement and 1% Penicillin/Streptomycin (Gibco). The cell number was determined and cells were plated at a density of 25,000 cells/cm2 in poly-L-lysine coated (P-6282, Sigma) 12-well plates (#3513, Corning, Corning, N.Y.) for biochemical and flow cytometry studies and on plastic 8-well chamber slides (#354108, BD Bioscience, San Jose, Calif.) for immunohistochemistry or TUNEL staining. Cells were maintained at 37° C. and 5% CO2 in a humidified chamber. The presence of 1% FBS was required for the success of initial plating. […]
MIF ELISA. […] MIF concentrations were calculated by extrapolation from a quadratic standard curve using human rMIF (range: 0-12 ng/ml, sensitivity: 150 pg/ml).

The subject of data set [3] is urinary retention. The settings on record: randomized placebo controlled trials; cited from earlier work.
The test system of data set [4] is primary rat detrusor muscle cultures. The class given is cell-based. To be noted: 1 μg/ml, bladder smooth muscle cells, data not shown. The protocol: as §1, with “The supernatant was aspirated and cells resuspended in DMEM-F/12 medium containing 1% FBS, 1% N-2 supplement and 1% Penicillin/Streptomycin (Gibco).” left out, “staining.” for “staining. Cells were maintained at 37° C. and 5% CO2 in a humidified chamber. The presence of 1% FBS was required for the success of initial plating.”
Apoptosis detection. […] Following treatment with rMIF, cells were analyzed using a kit (PF032, Calbiochem, San. Diego, Calif.) to separate apoptotic and necrotic cells on flow cytometry. […] Cells were analyzed using a Becton Dickenson FACS caliber flow cytometer with collection and analysis of data performed using Becton Dickinson CELLQuest software. TUNEL staining was detected using a kit (Roche) with DAB microscopy of cells grown 5-7 days in 8-well chamber slides. […]

Data set [5] relates to bladder function, men with BPH. To be noted: cited from earlier work.
Data set [6] relates to post-void residual in ambulatory older women. To be noted: estrogen users, 204 ambulatory women, mean age 79 years; cited from earlier work.

The values that follow come from patent US20080089884A1, “Compositions and methods for the modulation of detrusor activity” (priority 2006, published 2008).

With `CCN(CC)CC#CCOC(=O)C(O)(c1ccccc1)C1CCCCC1` (stereo not drawn) [oxybutynin], the “decrease in daily incontinence frequency” value in data set [1] (intention-to-treat, 64 subjects on immediate-release oxybutynin started at 2.5 mg and titrated) was 68%. The “evaluable subjects with no end-study leakage, impaired contractility” value in data set [1] (on oxybutynin, 9/19 subjects) is listed as 47%. The “evaluable subjects with no end-study leakage, normal contractility” value in data set [1] (on oxybutynin, 25/35 subjects) was 71%. Moreover, the “subjects with no incontinence episodes on the end-study bladder diary” value in data set [1] (subjects randomized to oxybutynin) is recorded as 34/64. Take TNF-α: the “increase in MIF protein levels detectable in the supernatant” value in data set [2] is listed as “approximately 30%”. In the case of `CC(C[N+](C)(C)C)OC(N)=O` (stereo not drawn) [Bethanechol chloride], the clinically-relevant outcomes in data set [3] is recorded as “does not improve clinically-relevant outcomes”. Regarding `C[C@@H]1C[C@@H]([C@H](O)CC2CC(=O)NC(=O)C2)C(=O)[C@@H](C)C1` [cyclohexamide], the “apoptosis or necrosis induced by cyclohexamide alone” value in data set [4] is recorded as “does not induce apoptosis or necrosis”. With `CC(C)[N+](C)(CCOC(=O)C1c2ccccc2Oc2ccccc21)C(C)C` [propantheline], the acute urinary retention in data set [5] was 5/6. Regarding estrogen, the “mean PVR” value in data set [6] was 39.3 mL.
